Values quoted from earlier work, collected in patent US20060069068A1, “Methods and compositions for the treatment of diseases characterized by pathological calcification” (Nanobac Pharmaceuticals, Inc., priority 2004, published 2006).

Legend:
[1] = tested on: Nanobacteria; conditions: background statement
[2] = both in vitro and in vivo; comparator etidronate

Compound | killing of Nanobacteria [1] | potency relative to etidronate [2]
Penicillin | cannot be killed | 
NCCCC(O)(P(=O)(O)O)P(=O)(O)O [alendronate] |  | approximately 700 fold
